Source: patent US20220387365A1, “TUCARESOL DERIVATIVES AND USES THEREOF” (BeyondSpring Pharmaceuticals, Inc., priority 2019, published 2022)

Tests used:
[1] = test system: MC-38 tumor cells; test: In vivo efficacy in subcutaneous MC-38 murine colorectal cancer model (Example 9); set-up: species or system C57BL/6 mice
Procedure: This study evaluated preclinically the in vivo therapeutic efficacy of Compound C02 as a single agent and in combination with anti-PD-1 antibody in the treatment of subcutaneous MC-38 colorectal cancer models in C57BL/6 mice.
Treatment regimen may be changed per BW loss or other adverse effect according to rules set forth and/or client requests. When dosed on the same day, vehicle for CO2 was administered about 1-2 hours after the dosing of anti-PD1 or control IgG.
The […] tumor cells were maintained in vitro as a monolayer culture in RPMI-1640 supplemented with 10% fetal bovine serum at 37° C. in an atmosphere of 5% CO2 in air. The cells in an exponential growth phase were harvested and counted for tumor inoculation. […]
After tumor cells inoculation, the animals were checked daily for morbidity and mortality. During routine monitoring, the animals were checked for any effects of tumor growth and treatments on behavior such as mobility, food and water consumption, body weight gain/loss (body weights will be measured twice per week after randomization), eye/hair matting and any other abnormalities. Mortality and observed clinical signs were recorded for individual animals in detail. […]
Rectal temperature was recorded without anaesthesia on the day prior to the first dosing and on the day after the last oral dose.

[2] = Stability in C57BL/6 K2EDTA plasma at 22° C. over 1 hour by LC; type: in vitro ADME, mouse; settings: for Remaining %: mouse plasma, 2,000 ng/mL, 22°C
Procedure: Tucaresol, Compound B02, Compound C01, Compound C02-1, and Compound C02 were dosed once, by IV bolus (3 mg/kg in 20% hydroxyprophyl-13-cyclodextrin with 1 eq NaOH) or PO (10 mg/kg in 1% carboxymethylcellulose/0.1% tween-80 in water), to non-fasted male C57BL/6 mice. Animals were bled from the dorsal metatarsal vein (from the heart for 24 hour time point) for K2-EDTA plasma 0.083 (for IV only), 0.25, 0.5, 1, 2, 4, 8, and 24 hours after dosing. The plasma concentration of the dosed tucaresol or compound were measured by LC/MS/MS (I-CMS-8060 instrument for MS). PK parameters were then calculated with WinNonlin 6.1. For Compounds C01, CO2 and CO2-1, stability in C57BL/6 K2EDTA plasma was also evaluated at 22° C. over 1 hour by utilizing LC.
Compounds C01 and C02-1 are unstable at 22° C.

[3] = test system: MC38 tumor cells; test: Tumor volume in subcutaneous syngeneic colorectal cancer model MC38 (Example 10); type: in vivo,  mice
Procedure: MC38 tumor cells were maintained in vitro with DMEM medium supplemented with 10% fetal bovine serum at 37° C. in an atmosphere of 5% CO2 in air. The cells in exponential growth phase were harvested and quantitated by cell counter before tumor inoculation. Each mouse was inoculated subcutaneously in the right lower flank with 1×10^6 MC38 tumor cells in 0.1 ml of PBS for tumor development.
The randomization was started when the mean tumor size reached approximately 145 mm^3. 108 mice were enrolled in the study. All animals were randomly allocated to 9 study groups. Randomization by tumor volume was performed based on “Matched distribution” method/ “Stratified” method (StudyDirector™ software, version 3.1.399.19)/randomized block design.
Tumor volumes were measured three times a week after randomization in two dimensions using a caliper, and the volume was expressed in mm^3 using the formula: V=(L×W×W)/2, where V is tumor volume, L is tumor length (the longest tumor dimension) and W is tumor width (the longest tumor dimension perpendicular to L). Dosing as well as tumor and body weight measurements were conducted in a Laminar Flow Cabinet. The body weights and tumor volumes were measured by using StudyDirector™ software (version 3.1.399.19).
The treatment was initiated following randomization.
Tumor growth inhibition (TGI): TGI% is an indication of antitumor activity, and expressed as: TGI (%)=100×(1−T/C). T and C are the mean tumor volume (or weight) of the treated and control groups, respectively, on a given day. Statistical analysis of the difference in mean tumor volume among the groups was conducted using the method time to survival event/euthanasia. Individual mice were euthanized when tumor volume exceeded 3000mm^3. The study was ultimately terminated at Day 36.
To compare tumor volumes of different groups at a pre-specified day, Bartlett's test was used to check the assumption of homogeneity of variance across all groups. When the p-value of Bartlett's test was >=0.05, one-way ANOVA was runto test overall equality of means across all groups. If the p-value of the one-way ANOVA was <0.05, was performed post hoc testing by running Tukey's HSD (honest significant difference) tests for all pairwise comparisons, and Dunnett's tests for comparing each treatment group with the vehicle group. When the p-value of Bartlett's test was <0.05, was run Kruskal-Wallis test to test overall equality of medians among all groups. If the p-value the Kruskal-Wallis test was <0.05, was performed post hoc testing by running Conover's non-parametric test for all pairwise comparisons or for comparing each treatment group with the vehicle group, both with single-step p-value adjustment.
In addition, pairwise comparisons were performed without multiple comparison correction and reported nominal/uncorrected p-values directly from Welch's t-test or Mann-Whitney U test. Specifically, Bartlett's test was used to check the assumption of homogeneity of variance for a pair of groups. When the p-value of Bartlett's test was >0.05, Welch's t-test was run, otherwise Mann-Whitney U test was run, to obtain nominal p-values. Survival curves were compared between groups by logrank (Mantel-Cox) test.
All statistical analyses had been done in R-a language and environment for statistical computing and graphics (version 3.3.1). All tests were two-sided unless otherwise specified, and p-values of <0.05 were regarded as statistically significant.
Kaplan-Meier plot showing percent survival of mice treated with G1 to G9. A mouse whose tumor volume exceeded 3000 mm^3 was sacrificed and scored in the Kaplan-Meier plot. Tables 13.1 and 13.2 below describes the tumor growth inhibition with data collected over 24 days. Tables 14.1 and 14.2 below describes mean body weight.

Question: Which “time of treatment after which the benefits were especially apparent” value ([1]; QDx5, as a monotherapy or in combination with anti-PD1) does the source give for `O=Cc1c(OCc2ccc(C(=O)O)cc2)cccc1OC1O[C@H](CO)[C@@H](O)[C@H](O)[C@H]1O` (stereo partly shown) [Compound C02] here?
Answer: Its value is 15 to 20 days.

Question: And the “dose response of efficacy (in words)” value ([1]; QDx5 dosing, down to 10 mg/kg QDx5)?
Answer: The value was “inverse dose response relationship”.

Question: What about the “mouse plasma stability (in words)” value ([2]; 22° C.) of the same compound?
Answer: Its value is “initial instability”.

Question: And the Remaining % ([2]; 0 min)?
Answer: Its Remaining % is 100%.

Question: What about the Remaining % ([2]; 5 min) of the same compound?
Answer: Its Remaining % is 62.3%.

Question: What about the Remaining % ([2]; 15 min) of the same compound?
Answer: Its Remaining % is 79.6%.

Question: What about the Remaining % ([2]; 30 min) of the same compound?
Answer: The Remaining % was 68.7%.

Question: What about the Remaining % ([2]; 60 min) of the same compound?
Answer: The Remaining % was 61.7%.

Question: What about the “level of starting at which the compound leveled off” value ([2]; mouse plasma, 22° C., through 1 hour) of the same compound?
Answer: The value was 60-70%.

Question: What about the “antitumor efficacy of the combination (in words)” value ([3]; 20 mg/kg C02 (Group 4) against anti-PD1 alone (Group 3), FIG. 5A) of the same compound?
Answer: Its value is “significantly increased the antitumor efficacy of anti-PDA1 administered alone”.

Question: And the “Mean Tumor Volumes” value ([3]; Day 1)?
Answer: Its value is 145 ± 5.46 mm^3.

Question: What about the “Mean Tumor Volumes” value ([3]; Day 4) of the same compound?
Answer: Its value is 215.49 ± 15.14 mm^3.

Question: What about the “Mean Tumor Volumes” value ([3]; Day 8) of the same compound?
Answer: Its value is 590.08 ± 59.54 mm^3.

Question: And the “Mean Tumor Volumes” value ([3]; Day 10)?
Answer: Its value is 1048.2 ± 89.19 mm^3.

Question: What about the “Mean Tumor Volumes” value ([3]; Day 12) of the same compound?
Answer: The value was 1750.55 ± 154.11 mm^3.

Question: And the “Mean Tumor Volumes” value ([3]; Day 15)?
Answer: The value was 2847.19 ± 242.97 mm^3.
